Assay results published in patent US20240383831A1, “ALKOXYLATION OF CANNABIDIOL AND OTHER CANNABINOIDS” (Indorama Ventures Oxides LLC, priority 2021, published 2024).

Columns and labels:
Type in all cases: physicochemical
[1] = Water solubility of e-CBD compounds, 5 wt % actives in water
Excerpt: (§1) The alkoxylated product that results from the above reaction conditions can be characterized using common analytical techniques, including hydroxyl value, melting point, unreacted cannabinoid (wt %), cloud point (5 wt % in water), pH (5 wt % in water), ^1H NMR-structural analysis, and appearance. Comparisons between a cannabinoid and its alkoxylated form (such as CBD and e-CBD in EXAMPLE 1 below) are made in Table 1 exemplifying how the e-CBD having a (POE) value of 12 behaves differently as compared to its non-ethoxylated precursor. While these properties are strongly dependent on the number of moles of EO used in relation to the equivalents of CBD, in order to obtain a water soluble or dispersible product, the number of moles of EO in the e-CBD may be between about 1-100, more preferably between about 10-25.
By varying the molar ratio of the epoxide-to-cannabinoid starter compound to produce a product having a (POE) value between 7 and 36, the hydrophilicity of the cannabinoid may be tuned (see Table 2). The water solubility of the alkoxylated-CBD compounds (Examples 1-4) was determined at room (25° C.) and physiological (37° C.) temperatures.

[2] = Cloud point, 5 wt % actives in water
Excerpt: as §1

pH of 5 wt % in water = assay: pH of 5 wt % in water
Excerpt: as §1

C=C(C)[C@@H]1CCC(C)=C[C@H]1c1c(O)cc(CCCCC)cc1O [CBD, cannabidiol]
Insoluble: Water Solubility (5 wt % in water at 37° C.) ([1]; Table 1, 5 wt % in water, 37° C.) | Water Solubility (5 wt % actives in water at 25° C.) ([1]; Table 2, 5 wt % actives in water, 25° C. (room temperature)) | Water Solubility (5 wt % actives in water at 37° C.) ([1]; Table 2, 5 wt % actives in water, 37° C. (physiological temperature)) | Cloud Point (° C., 5 wt % actives in water) [2] | pH (5 wt % in water at 25° C.) (pH of 5 wt % in water)
